According to patent publication US10765114B2, “4-amino-6-(pyridyl and 2-substitutedphenyl)-picolinates and 6-amino-2-(pyridyl and 2-substitutedphenyl)-pyrimidine-4-carboxylates and their use as herbicides” (Dow AgroSciences LLC, priority 2013, dated 2020):

System: Key Grass and Sedge Weeds as well as Grass Crops
Test: Post-Emergent Test II (Table 6)
Assay type: in vivo
Settings: post-emergence, 336 h, CYPSS, 70 g ai/ha, 14 days after application, read-out: Visual Growth Reduction (%) 14 Days After Application CYPSS
Procedure, shortened: (§1)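 Plants at first or second true-leaf stage, grown 7-21 days in greenhouse, were sprayed post-emergence at 187 L/ha with compounds in acetone/DMSO/water/crop oil/surfactant mixture at the high rate and ½× to 1/16× dilutions. Injury scored visually after 14 days, 0 (none) to 100% (complete kill), versus untreated plants.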

| Compound | pest or weed control at 70 g/ha |
| --- | --- |
| COC(=O)c1nc(-c2ccc(Cl)c(F)c2C)c(F)c(N)c1Cl [Compound 68] | 0 to 29% |

Same assay, conditions: post-emergence, 336 h, CYPSS, 140 g ai/ha, 14 days after application, read-out: Visual Growth Reduction (%) 14 Days After Application CYPSS

| Compound | pest or weed control at 140 g/ha |
| --- | --- |
| COC(=O)c1nc(-c2ccc(Cl)c(F)c2C)c(F)c(N)c1Cl [Compound 68] | 0 to 29% |

Same assay, conditions: post-emergence, 336 h, DIGSA: crabgrass (Digitaria sanguinalis), 70 g ai/ha, 14 days after application, read-out: Visual Growth Reduction (%) 14 Days After Application DIGSA

| Compound | pest or weed control at 70 g/ha |
| --- | --- |
| COC(=O)c1nc(-c2ccc(Cl)c(F)c2C)c(F)c(N)c1Cl [Compound 68] | 0 to 29% |

Same assay, conditions: post-emergence, 336 h, DIGSA: crabgrass (Digitaria sanguinalis), 140 g ai/ha, 14 days after application, read-out: Visual Growth Reduction (%) 14 Days After Application DIGSA

| Compound | pest or weed control at 140 g/ha |
| --- | --- |
| COC(=O)c1nc(-c2ccc(Cl)c(F)c2C)c(F)c(N)c1Cl [Compound 68] | 0 to 29% |

Same assay, conditions: post-emergence, 336 h, ECHSS, 70 g ai/ha, 14 days after application, read-out: Visual Growth Reduction (%) 14 Days After Application ECHSS

| Compound | pest or weed control at 70 g/ha |
| --- | --- |
| COC(=O)c1nc(-c2ccc(Cl)c(F)c2C)c(F)c(N)c1Cl [Compound 68] | 0 to 29% |

Same assay, conditions: post-emergence, 336 h, ECHSS, 140 g ai/ha, 14 days after application, read-out: Visual Growth Reduction (%) 14 Days After Application ECHSS

| Compound | pest or weed control at 140 g/ha |
| --- | --- |
| COC(=O)c1nc(-c2ccc(Cl)c(F)c2C)c(F)c(N)c1Cl [Compound 68] | 0 to 29% |

Same assay, conditions: post-emergence, 336 h, ORYSS (crop), 70 g ai/ha, 14 days after application, read-out: Visual Growth Reduction (%) 14 Days After Application ORYSS

| Compound | pest or weed control at 70 g/ha |
| --- | --- |
| COC(=O)c1nc(-c2ccc(Cl)c(F)c2C)c(F)c(N)c1Cl [Compound 68] | 0 to 29% |

Same assay, conditions: post-emergence, 336 h, ORYSS (crop), 140 g ai/ha, 14 days after application, read-out: Visual Growth Reduction (%) 14 Days After Application ORYSS

| Compound | pest or weed control at 140 g/ha |
| --- | --- |
| COC(=O)c1nc(-c2ccc(Cl)c(F)c2C)c(F)c(N)c1Cl [Compound 68] | 0 to 29% |

Same assay, conditions: post-emergence, 336 h, SETFA: giant foxtail (Setaria faberi), 70 g ai/ha, 14 days after application, read-out: Visual Growth Reduction (%) 14 Days After Application SETFA

| Compound | pest or weed control at 70 g/ha |
| --- | --- |
| COC(=O)c1nc(-c2ccc(Cl)c(F)c2C)c(F)c(N)c1Cl [Compound 68] | 0 to 29% |

Same assay, conditions: post-emergence, 336 h, SETFA: giant foxtail (Setaria faberi), 140 g ai/ha, 14 days after application, read-out: Visual Growth Reduction (%) 14 Days After Application SETFA

| Compound | pest or weed control at 140 g/ha |
| --- | --- |
| COC(=O)c1nc(-c2ccc(Cl)c(F)c2C)c(F)c(N)c1Cl [Compound 68] | 0 to 29% |

Same assay, conditions: post-emergence, 336 h, SORVU: grain sorghum (Sorghum vulgare), 70 g ai/ha, 14 days after application, read-out: Visual Growth Reduction (%) 14 Days After Application SORVU

| Compound | pest or weed control at 70 g/ha |
| --- | --- |
| COC(=O)c1nc(-c2ccc(Cl)c(F)c2C)c(F)c(N)c1Cl [Compound 68] | 0 to 29% |

Same assay, conditions: post-emergence, 336 h, SORVU: grain sorghum (Sorghum vulgare), 140 g ai/ha, 14 days after application, read-out: Visual Growth Reduction (%) 14 Days After Application SORVU

| Compound | pest or weed control at 140 g/ha |
| --- | --- |
| COC(=O)c1nc(-c2ccc(Cl)c(F)c2C)c(F)c(N)c1Cl [Compound 68] | 0 to 29% |

Same assay, conditions: post-emergence, 336 h, TRZSS (crop), 70 g ai/ha, 14 days after application, read-out: Visual Growth Reduction (%) 14 Days After Application TRZSS

| Compound | pest or weed control at 70 g/ha |
| --- | --- |
| COC(=O)c1nc(-c2ccc(Cl)c(F)c2C)c(F)c(N)c1Cl [Compound 68] | 0 to 29% |

Same assay, conditions: post-emergence, 336 h, TRZSS (crop), 140 g ai/ha, 14 days after application, read-out: Visual Growth Reduction (%) 14 Days After Application TRZSS

| Compound | pest or weed control at 140 g/ha |
| --- | --- |
| COC(=O)c1nc(-c2ccc(Cl)c(F)c2C)c(F)c(N)c1Cl [Compound 68] | 0 to 29% |

Same assay, conditions: post-emergence, 336 h, ZEAMX: maize, corn (Zea mays), 70 g ai/ha, 14 days after application, read-out: Visual Growth Reduction (%) 14 Days After Application ZEAMX

| Compound | pest or weed control at 70 g/ha |
| --- | --- |
| COC(=O)c1nc(-c2ccc(Cl)c(F)c2C)c(F)c(N)c1Cl [Compound 68] | 0 to 29% |

Same assay, conditions: post-emergence, 336 h, ZEAMX: maize, corn (Zea mays), 140 g ai/ha, 14 days after application, read-out: Visual Growth Reduction (%) 14 Days After Application ZEAMX

| Compound | pest or weed control at 140 g/ha |
| --- | --- |
| COC(=O)c1nc(-c2ccc(Cl)c(F)c2C)c(F)c(N)c1Cl [Compound 68] | 0 to 29% |

System: Key Broadleaf Weed and Crop Species
Test: Post-Emergent Test II (Table 5)
Assay type: in vivo
Settings: Abutilon theophrasti, post-emergence, 336 h, ABUTH: velvetleaf (Abutilon theophrasti), application rate 70 (kg ai/ha; footnote: g ai/ha), read-out: Visual Growth Reduction (%) 14 Days After Application ABUTH
Procedure, shortened: as §1

| Compound | pest or weed control at 70 g/ha |
| --- | --- |
| COC(=O)c1nc(-c2ccc(Cl)c(F)c2C)c(F)c(N)c1Cl [Compound 68] | 95 to 100% |

Same assay, conditions: Abutilon theophrasti, post-emergence, 336 h, ABUTH: velvetleaf (Abutilon theophrasti), application rate 140 (kg ai/ha; footnote: g ai/ha), read-out: Visual Growth Reduction (%) 14 Days After Application ABUTH

| Compound | pest or weed control at 140 g/ha |
| --- | --- |
| COC(=O)c1nc(-c2ccc(Cl)c(F)c2C)c(F)c(N)c1Cl [Compound 68] | 95 to 100% |

Same assay, conditions: Amaranthus retroflexus, post-emergence, 336 h, AMARE: redroot pigweed (Amaranthus retroflexus), application rate 70 (kg ai/ha; footnote: g ai/ha), read-out: Visual Growth Reduction (%) 14 Days After Application AMARE

| Compound | pest or weed control at 70 g/ha |
| --- | --- |
| COC(=O)c1nc(-c2ccc(Cl)c(F)c2C)c(F)c(N)c1Cl [Compound 68] | 95 to 100% |

Same assay, conditions: Amaranthus retroflexus, post-emergence, 336 h, AMARE: redroot pigweed (Amaranthus retroflexus), application rate 140 (kg ai/ha; footnote: g ai/ha), read-out: Visual Growth Reduction (%) 14 Days After Application AMARE

| Compound | pest or weed control at 140 g/ha |
| --- | --- |
| COC(=O)c1nc(-c2ccc(Cl)c(F)c2C)c(F)c(N)c1Cl [Compound 68] | 95 to 100% |

Same assay, conditions: Brassica napus, post-emergence, 336 h, BRSSS: oilseed rape, canola (Brassica napus), application rate 70 (kg ai/ha; footnote: g ai/ha), read-out: Visual Growth Reduction (%) 14 Days After Application BRSSS

| Compound | pest or weed control at 70 g/ha |
| --- | --- |
| COC(=O)c1nc(-c2ccc(Cl)c(F)c2C)c(F)c(N)c1Cl [Compound 68] | 85 to 94% |

Same assay, conditions: Brassica napus, post-emergence, 336 h, BRSSS: oilseed rape, canola (Brassica napus), application rate 140 (kg ai/ha; footnote: g ai/ha), read-out: Visual Growth Reduction (%) 14 Days After Application BRSSS

| Compound | pest or weed control at 140 g/ha |
| --- | --- |
| COC(=O)c1nc(-c2ccc(Cl)c(F)c2C)c(F)c(N)c1Cl [Compound 68] | 95 to 100% |

Same assay, conditions: Chenopodium album, post-emergence, 336 h, CHEAL: lambsquarters (Chenopodium album), application rate 70 (kg ai/ha; footnote: g ai/ha), read-out: Visual Growth Reduction (%) 14 Days After Application CHEAL

| Compound | pest or weed control at 70 g/ha |
| --- | --- |
| COC(=O)c1nc(-c2ccc(Cl)c(F)c2C)c(F)c(N)c1Cl [Compound 68] | 95 to 100% |

Same assay, conditions: Chenopodium album, post-emergence, 336 h, CHEAL: lambsquarters (Chenopodium album), application rate 140 (kg ai/ha; footnote: g ai/ha), read-out: Visual Growth Reduction (%) 14 Days After Application CHEAL

| Compound | pest or weed control at 140 g/ha |
| --- | --- |
| COC(=O)c1nc(-c2ccc(Cl)c(F)c2C)c(F)c(N)c1Cl [Compound 68] | 95 to 100% |

Same assay, conditions: Euphorbia heterophylla, post-emergence, 336 h, EPHHL: wild poinsettia (Euphorbia heterophylla), application rate 70 (kg ai/ha; footnote: g ai/ha), read-out: Visual Growth Reduction (%) 14 Days After Application EPHHL

| Compound | pest or weed control at 70 g/ha |
| --- | --- |
| COC(=O)c1nc(-c2ccc(Cl)c(F)c2C)c(F)c(N)c1Cl [Compound 68] | 0 to 29% |

Same assay, conditions: Euphorbia heterophylla, post-emergence, 336 h, EPHHL: wild poinsettia (Euphorbia heterophylla), application rate 140 (kg ai/ha; footnote: g ai/ha), read-out: Visual Growth Reduction (%) 14 Days After Application EPHHL

| Compound | pest or weed control at 140 g/ha |
| --- | --- |
| COC(=O)c1nc(-c2ccc(Cl)c(F)c2C)c(F)c(N)c1Cl [Compound 68] | 0 to 29% |

Same assay, conditions: Helianthus annuus, post-emergence, 336 h, HELAN: sunflower (Helianthus annuus), application rate 70 (kg ai/ha; footnote: g ai/ha), read-out: Visual Growth Reduction (%) 14 Days After Application HELAN

| Compound | pest or weed control at 70 g/ha |
| --- | --- |
| COC(=O)c1nc(-c2ccc(Cl)c(F)c2C)c(F)c(N)c1Cl [Compound 68] | 95 to 100% |

Same assay, conditions: Helianthus annuus, post-emergence, 336 h, HELAN: sunflower (Helianthus annuus), application rate 140 (kg ai/ha; footnote: g ai/ha), read-out: Visual Growth Reduction (%) 14 Days After Application HELAN

| Compound | pest or weed control at 140 g/ha |
| --- | --- |
| COC(=O)c1nc(-c2ccc(Cl)c(F)c2C)c(F)c(N)c1Cl [Compound 68] | 95 to 100% |

Same assay, conditions: Viola tricolor, post-emergence, 336 h, VIOTR: wild pansy (Viola tricolor), application rate 70 (kg ai/ha; footnote: g ai/ha), read-out: Visual Growth Reduction (%) 14 Days After Application VIOTR

| Compound | pest or weed control at 70 g/ha |
| --- | --- |
| COC(=O)c1nc(-c2ccc(Cl)c(F)c2C)c(F)c(N)c1Cl [Compound 68] | 30 to 44% |

Same assay, conditions: Viola tricolor, post-emergence, 336 h, VIOTR: wild pansy (Viola tricolor), application rate 140 (kg ai/ha; footnote: g ai/ha), read-out: Visual Growth Reduction (%) 14 Days After Application VIOTR

| Compound | pest or weed control at 140 g/ha |
| --- | --- |
| COC(=O)c1nc(-c2ccc(Cl)c(F)c2C)c(F)c(N)c1Cl [Compound 68] | 30 to 44% |

System: not given
Test: not given
Settings: not given

| melting point | Compound |
| --- | --- |
| 154 to 156 °C | COC(=O)c1nc(-c2ccc(Cl)c(F)c2C)c(F)c(N)c1Cl [Compound 68] |
